Activity calls are given as the source filed them.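 Rule for the calls: active = EC50 at most tenfold above the top concentration tested; inconclusive = flat fit with activity between 30% and 70%, or invalid fit; inactive = EC50 beyond tenfold above the top concentration.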
Tested on: S. cerevisiae SKY197-pL101 polyadenylation reporter, beta-gal luminescence, 9 h
Test: polyadenylation inhibitors in yeast reporter, dose response, luminescence, S. cerevisiae SKY197-pL101 (AID 2525)

**Q.** Nc1ncnc2c1ncn2C1OC(CO)CC1O (stereo unspecified) was tested. Which EC50 did it give?
**A.** > 50 µM (inactive)
